Earlier results as cited in US12478643B2, “Compositions and methods for the prevention or treatment of rheumatoid arthritis” (Rhode Island Hospital, priority 2021, dated 2025).
Read-outs that look alike come from different tables or passages of the source.

Assays:
SHIP1 [1] = target: T1, SHIP1 (Homo sapiens, UniProt Q92835)
T1 sequence (Q92835 1-1189): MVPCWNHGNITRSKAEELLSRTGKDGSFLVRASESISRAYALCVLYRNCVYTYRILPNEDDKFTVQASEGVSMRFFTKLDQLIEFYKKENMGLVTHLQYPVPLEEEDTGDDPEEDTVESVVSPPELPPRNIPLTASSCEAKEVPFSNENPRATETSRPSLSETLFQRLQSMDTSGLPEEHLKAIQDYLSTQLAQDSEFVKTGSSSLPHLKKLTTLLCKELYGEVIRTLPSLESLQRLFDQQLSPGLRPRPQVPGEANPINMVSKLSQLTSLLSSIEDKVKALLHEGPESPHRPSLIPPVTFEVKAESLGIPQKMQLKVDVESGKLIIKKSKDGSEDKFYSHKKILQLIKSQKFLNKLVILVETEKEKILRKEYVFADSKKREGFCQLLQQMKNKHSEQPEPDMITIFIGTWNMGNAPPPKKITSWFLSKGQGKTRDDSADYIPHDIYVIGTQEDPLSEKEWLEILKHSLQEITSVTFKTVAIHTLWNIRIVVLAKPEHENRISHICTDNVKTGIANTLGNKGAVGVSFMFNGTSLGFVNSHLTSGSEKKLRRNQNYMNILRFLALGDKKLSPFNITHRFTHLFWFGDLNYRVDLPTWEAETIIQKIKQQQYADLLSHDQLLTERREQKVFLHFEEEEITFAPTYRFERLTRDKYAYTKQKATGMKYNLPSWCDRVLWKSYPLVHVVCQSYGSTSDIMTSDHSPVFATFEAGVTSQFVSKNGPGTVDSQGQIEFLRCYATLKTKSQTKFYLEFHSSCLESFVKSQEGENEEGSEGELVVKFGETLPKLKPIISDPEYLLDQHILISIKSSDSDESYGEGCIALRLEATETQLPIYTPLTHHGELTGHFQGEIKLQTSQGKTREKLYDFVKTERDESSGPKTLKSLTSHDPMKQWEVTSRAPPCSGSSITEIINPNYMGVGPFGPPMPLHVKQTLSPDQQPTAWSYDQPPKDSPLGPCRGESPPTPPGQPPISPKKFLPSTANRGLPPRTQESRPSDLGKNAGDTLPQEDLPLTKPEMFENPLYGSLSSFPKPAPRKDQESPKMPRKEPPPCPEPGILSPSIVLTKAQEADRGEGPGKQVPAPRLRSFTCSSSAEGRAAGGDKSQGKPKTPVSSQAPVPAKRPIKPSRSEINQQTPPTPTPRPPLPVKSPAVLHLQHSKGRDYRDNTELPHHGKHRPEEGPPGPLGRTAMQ

SHIP1 [2] = target: T1, SHIP1; settings: at 100 μM; cited from earlier work
SHIP2 = target: T2, SHIP2 (Homo sapiens, UniProt O15357); settings: at 100 μM; cited from earlier work
T2 sequence (O15357 1-1258): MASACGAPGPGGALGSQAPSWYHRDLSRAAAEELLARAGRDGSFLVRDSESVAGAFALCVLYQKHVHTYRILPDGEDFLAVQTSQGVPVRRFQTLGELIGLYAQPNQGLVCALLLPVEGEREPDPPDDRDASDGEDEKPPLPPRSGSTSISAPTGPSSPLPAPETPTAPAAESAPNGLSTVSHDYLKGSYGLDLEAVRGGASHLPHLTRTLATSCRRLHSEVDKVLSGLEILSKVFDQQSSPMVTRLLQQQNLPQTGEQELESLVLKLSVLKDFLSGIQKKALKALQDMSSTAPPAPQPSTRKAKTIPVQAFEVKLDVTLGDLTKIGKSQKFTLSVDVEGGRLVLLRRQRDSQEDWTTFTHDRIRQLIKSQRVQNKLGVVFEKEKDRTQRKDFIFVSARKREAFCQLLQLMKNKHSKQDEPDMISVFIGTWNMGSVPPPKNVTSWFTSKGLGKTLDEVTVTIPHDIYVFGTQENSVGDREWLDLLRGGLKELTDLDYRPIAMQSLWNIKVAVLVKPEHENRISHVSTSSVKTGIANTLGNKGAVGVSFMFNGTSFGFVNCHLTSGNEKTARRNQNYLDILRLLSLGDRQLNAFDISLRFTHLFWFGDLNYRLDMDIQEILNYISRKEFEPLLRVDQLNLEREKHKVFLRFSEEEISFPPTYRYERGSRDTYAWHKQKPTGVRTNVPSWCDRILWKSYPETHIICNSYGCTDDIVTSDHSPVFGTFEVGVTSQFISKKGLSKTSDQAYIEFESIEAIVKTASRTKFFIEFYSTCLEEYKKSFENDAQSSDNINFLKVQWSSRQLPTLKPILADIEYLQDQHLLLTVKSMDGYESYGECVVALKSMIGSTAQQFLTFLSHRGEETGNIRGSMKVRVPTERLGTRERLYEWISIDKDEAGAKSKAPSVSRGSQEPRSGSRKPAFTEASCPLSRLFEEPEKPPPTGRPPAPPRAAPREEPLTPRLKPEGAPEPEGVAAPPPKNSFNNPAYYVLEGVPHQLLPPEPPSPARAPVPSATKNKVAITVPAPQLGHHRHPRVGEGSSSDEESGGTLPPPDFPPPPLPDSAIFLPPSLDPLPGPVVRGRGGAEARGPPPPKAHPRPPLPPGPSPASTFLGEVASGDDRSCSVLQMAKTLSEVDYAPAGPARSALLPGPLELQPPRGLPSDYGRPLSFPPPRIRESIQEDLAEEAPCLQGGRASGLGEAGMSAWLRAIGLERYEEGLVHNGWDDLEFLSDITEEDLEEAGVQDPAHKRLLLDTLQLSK

[3] = Table 1; read-out: IC50 SHIP1; cited from earlier work

Compound | IC50 (SHIP1 [1]; [3]) [µM] | inhibition of SHIP1 activity (SHIP1 [2]) | inhibition of SHIP2 (SHIP2) | also measured
CC12CCCC1C1CCC3CC(N)CCC3(C)C1CC2 (centres unmarked) [Compound K118] | – | – | – | IC50 (SHIP1 [1]; read-out: IC50 SHIP1; Table 1; cited from earlier work): 16 µM
CC12CCCC1C1CCC3CC(N)C(N)CC3(C)C1CC2 (centres unmarked) [Compound K161] | 6 | – | – | –
CSc1ccc2c(c1)c(CCN)c(C)n2Cc1ccccc1Cl [Compound 28] | – | approximately 70% | 50% | –
C[C@H](NC(=O)c1sccc1OCc1ccc(Cl)cc1)c1ccccc1 [AS194490] | 13 | – | – | –
O[C@H](c1cc(-c2ccccc2)nc2c1ccc1ccccc12)[C@@H]1CCCCN1 [Compound 26] | – | completely inhibited | approximately 60% | –
O[C@H](c1cc(C2C3CC4CC(C3)CC2C4)nc2c(Cl)cc(Cl)cc12)[C@@H]1CCCCN1 (some centres unmarked) [Compound 27] | – | completely inhibited | 90% | –
CC12CCCC1C1CCC3CC(N)CCC3(C)C1CC2 (centres unmarked) [Compound K185] | 18 | – | – | –
CC[C@H]1CC[C@H]2[C@@H]3C[C@@H](O)[C@@]4(O)C[C@H](N)CC[C@]4(C)[C@H]3CC[C@]12C [Compound K116] | 1.5 to 6 | – | – | –
